Experimental data from ChEMBL document CHEMBL1201862, “PubChem BioAssay data set” (2004).
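Cells were grown in 96-well plates and exposed to each compound for 48 hours at five concentrations; endpoints were interpolated linearly between bracketing concentrations, or set to the highest concentration if not reached. Here, GI50 denotes the concentration required for 50% inhibition of growth.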 The source made the active and inactive calls. No stated cut-off is given here; in the data, active = GI50 up to about 1.1 µM and inactive = higher.

Columns and labels:
Assay in all cases: inhibition of tumour cell growth, NCI panel, 48 h
[1] = test system: A498
[2] = test system: CCRF-CEM
[3] = test system: HOP-92
[4] = test system: HT-29
[5] = test system: Hs-578T
[6] = test system: K562
[7] = test system: M14
[8] = test system: MDA-N
[9] = test system: Malme-3M
[10] = test system: NCI-H226
[11] = test system: NCI-H522
[12] = test system: NCI/ADR-RES
[13] = test system: OVCAR-3
[14] = test system: OVCAR-8
[15] = test system: TK-10
[16] = test system: U-251
[17] = test system: UACC-257
[18] = test system: UO-31
[19] = test system: HCC 2998
[20] = test system: SN12C

COc1cccc2c1CCc1c(-c3ccc(F)cc3)cc(-c3ccc4ccccc4n3)nc1-2
GI50 [1]: > 100 µM (inactive)
GI50 [2]: > 100 µM (inactive)
GI50 [3]: > 100 µM (inactive)
GI50 [4]: > 100 µM (inactive)
GI50 [5]: > 100 µM (inactive)
GI50 [6]: > 100 µM (inactive)
GI50 [7]: > 100 µM (inactive)
GI50 [8]: > 100 µM (inactive)
GI50 [9]: > 100 µM (inactive)
GI50 [10]: > 100 µM (inactive)
GI50 [11]: > 100 µM (inactive)
GI50 [12]: > 100 µM (inactive)
GI50 [13]: > 100 µM (inactive)
GI50 [14]: > 100 µM (inactive)
GI50 [15]: > 100 µM (inactive)
GI50 [16]: > 100 µM (inactive)
GI50 [17]: > 100 µM (inactive)
GI50 [18]: > 100 µM (inactive)

C[C@H]1CC[C@@]2(NC1)O[C@H]1C[C@H]3[C@@H]4CC[C@H]5C[C@@H](O)CC[C@]5(C)[C@H]4CC[C@]3(C)[C@H]1[C@@H]2C
GI50 [1]: 77.8 µM (inactive)
GI50 [2]: > 100 µM (inactive)
GI50 [19]: > 100 µM (inactive)
GI50 [3]: 52.6 µM (inactive)
GI50 [4]: 47.9 µM (inactive)
GI50 [5]: 47 µM (inactive)
GI50 [6]: > 100 µM (inactive)
GI50 [7]: > 100 µM (inactive)
GI50 [8]: > 100 µM (inactive)
GI50 [10]: > 100 µM (inactive)
GI50 [11]: 59.4 µM (inactive)
GI50 [12]: 49.2 µM (inactive)
GI50 [13]: 54.2 µM (inactive)
GI50 [14]: 38.8 µM (inactive)
GI50 [20]: > 100 µM (inactive)
GI50 [15]: > 100 µM (inactive)
GI50 [17]: > 100 µM (inactive)
GI50 [18]: > 100 µM (inactive)

N#C[C@H](c1nc2ccccc2s1)c1nc2ccccc2nc1Cl
GI50 [1]: > 100 µM (inactive)
GI50 [2]: > 100 µM (inactive)
GI50 [19]: 2.67 µM (inactive)
GI50 [3]: 19.1 µM (inactive)
GI50 [4]: > 100 µM (inactive)
GI50 [5]: 94.6 µM (inactive)
GI50 [7]: 15.7 µM (inactive)
GI50 [8]: > 100 µM (inactive)
GI50 [9]: > 100 µM (inactive)
GI50 [10]: > 100 µM (inactive)
GI50 [11]: 57.3 µM (inactive)
GI50 [12]: > 100 µM (inactive)
GI50 [13]: 17.2 µM (inactive)
GI50 [14]: > 100 µM (inactive)
GI50 [20]: > 100 µM (inactive)
GI50 [16]: > 100 µM (inactive)
GI50 [17]: 14.7 µM (inactive)
GI50 [18]: 23.3 µM (inactive)

NC(Cc1ccc(O)cn1)C(=O)O (configuration not stated)
GI50 [1]: > 100 µM (inactive)
GI50 [19]: > 100 µM (inactive)
GI50 [3]: > 100 µM (inactive)
GI50 [4]: > 100 µM (inactive)
GI50 [5]: 4.19 µM (inactive)
GI50 [6]: > 100 µM (inactive)
GI50 [8]: > 100 µM (inactive)
GI50 [9]: > 100 µM (inactive)
GI50 [10]: > 100 µM (inactive)
GI50 [11]: > 100 µM (inactive)
GI50 [12]: > 100 µM (inactive)
GI50 [13]: > 100 µM (inactive)
GI50 [14]: > 100 µM (inactive)
GI50 [20]: > 100 µM (inactive)
GI50 [15]: > 100 µM (inactive)
GI50 [16]: 35.2 µM (inactive)
GI50 [17]: > 100 µM (inactive)
GI50 [18]: > 100 µM (inactive)

O=C(/C=C/c1ccc2c(c1)OCO2)CC(=O)C(=O)c1c[nH]c2ccccc12
GI50 [1]: 65.5 µM (inactive)
GI50 [2]: 26.7 µM (inactive)
GI50 [19]: 16.3 µM (inactive)
GI50 [3]: 81.7 µM (inactive)
GI50 [4]: 36.3 µM (inactive)
GI50 [5]: 29 µM (inactive)
GI50 [6]: 24.2 µM (inactive)
GI50 [7]: 63.2 µM (inactive)
GI50 [8]: 27.9 µM (inactive)
GI50 [9]: > 100 µM (inactive)
GI50 [11]: 68.5 µM (inactive)
GI50 [12]: > 100 µM (inactive)
GI50 [13]: 32 µM (inactive)
GI50 [14]: 37.1 µM (inactive)
GI50 [20]: 45.8 µM (inactive)
GI50 [15]: 38.4 µM (inactive)
GI50 [16]: 30.8 µM (inactive)
GI50 [17]: 51.8 µM (inactive)
GI50 [18]: 24.2 µM (inactive)

COC1=C2CC(C)CC(OC)C(OC(=O)CN)[C@H](C)/C=C(\C)C(OC(N)=O)C(OC)/C=C\C=C(/C)C(=O)NC(=CC1=O)C2=O (some centres not stated)
GI50 [1]: 12.1 µM (inactive)
GI50 [2]: 0.299 µM (active)
GI50 [19]: 1.9 µM (inactive)
GI50 [3]: 0.163 µM (active)
GI50 [4]: 0.306 µM (active)
GI50 [5]: 3.79 µM (inactive)
GI50 [7]: 0.451 µM (active)
GI50 [8]: 0.443 µM (active)
GI50 [9]: 0.351 µM (active)
GI50 [10]: 10.4 µM (inactive)
GI50 [11]: 0.159 µM (active)
GI50 [12]: 9.62 µM (inactive)
GI50 [13]: 0.481 µM (active)
GI50 [14]: 0.94 µM (active)
GI50 [20]: 0.412 µM (active)
GI50 [15]: 0.519 µM (active)
GI50 [16]: 1.58 µM (inactive)
GI50 [17]: 0.359 µM (active)
GI50 [18]: 0.716 µM (active)

O=C(/C=C/c1cc(F)ccc1F)OCCc1ccccc1
GI50 [1]: > 100 µM (inactive)
GI50 [2]: 38.3 µM (inactive)
GI50 [19]: > 100 µM (inactive)
GI50 [3]: 40.6 µM (inactive)
GI50 [4]: 43 µM (inactive)
GI50 [5]: 1.67 µM (inactive)
GI50 [6]: 52.1 µM (inactive)
GI50 [7]: > 100 µM (inactive)
GI50 [8]: 91.4 µM (inactive)
GI50 [9]: > 100 µM (inactive)
GI50 [10]: > 100 µM (inactive)
GI50 [11]: > 100 µM (inactive)
GI50 [12]: > 100 µM (inactive)
GI50 [14]: > 100 µM (inactive)
GI50 [15]: > 100 µM (inactive)
GI50 [16]: 33 µM (inactive)
GI50 [17]: > 100 µM (inactive)
GI50 [18]: 95.7 µM (inactive)

O=C(O)c1cccc(S(=O)(=O)NCCO)c1
GI50 [1]: > 100 µM (inactive)
GI50 [2]: > 100 µM (inactive)
GI50 [3]: > 100 µM (inactive)
GI50 [4]: > 100 µM (inactive)
GI50 [5]: > 100 µM (inactive)
GI50 [6]: > 100 µM (inactive)
GI50 [7]: > 100 µM (inactive)
GI50 [8]: > 100 µM (inactive)
GI50 [9]: > 100 µM (inactive)
GI50 [10]: > 100 µM (inactive)
GI50 [11]: > 100 µM (inactive)
GI50 [12]: > 100 µM (inactive)
GI50 [13]: > 100 µM (inactive)
GI50 [14]: > 100 µM (inactive)
GI50 [20]: > 100 µM (inactive)
GI50 [15]: > 100 µM (inactive)
GI50 [16]: > 100 µM (inactive)
GI50 [17]: > 100 µM (inactive)
GI50 [18]: > 100 µM (inactive)
